Experimental findings from ChEMBL document CHEMBL5442741, “ASAP - In vitro kinase profile” (2024) are described below.

Where “and” joins values, the source holds several entries; their conditions need not be identical. Identical values can stand only once.

Test [1] deals with T1, Aurora kinase A (Homo sapiens) (UniProt O14965).
T1 sequence (whole entry): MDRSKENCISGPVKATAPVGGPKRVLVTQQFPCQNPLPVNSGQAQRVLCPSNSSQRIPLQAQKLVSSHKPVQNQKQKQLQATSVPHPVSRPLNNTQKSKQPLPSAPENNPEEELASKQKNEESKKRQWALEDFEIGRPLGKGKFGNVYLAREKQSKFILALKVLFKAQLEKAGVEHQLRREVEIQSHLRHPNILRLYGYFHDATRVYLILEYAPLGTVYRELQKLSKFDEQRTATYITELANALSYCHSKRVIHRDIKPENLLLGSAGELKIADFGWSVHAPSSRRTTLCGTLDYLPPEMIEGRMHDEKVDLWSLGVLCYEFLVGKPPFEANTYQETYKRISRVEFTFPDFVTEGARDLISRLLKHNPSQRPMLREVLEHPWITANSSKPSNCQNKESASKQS
Nature of the test: Enzymatic radiometric [Km ATP] KinaseProfiler LeadHunter assay, kinase: Aurora-A, catalogue number: 14-511KP The assay has been performed by Eurofins Discovery. Conditions: ATP concentration 15.0 uM, Test compound concentration 10.0 uM.

Test [2] concerns the target T2, Inhibitor of nuclear factor kappa-B kinase subunit alpha (Homo sapiens) (UniProt O15111).
T2 sequence (whole entry): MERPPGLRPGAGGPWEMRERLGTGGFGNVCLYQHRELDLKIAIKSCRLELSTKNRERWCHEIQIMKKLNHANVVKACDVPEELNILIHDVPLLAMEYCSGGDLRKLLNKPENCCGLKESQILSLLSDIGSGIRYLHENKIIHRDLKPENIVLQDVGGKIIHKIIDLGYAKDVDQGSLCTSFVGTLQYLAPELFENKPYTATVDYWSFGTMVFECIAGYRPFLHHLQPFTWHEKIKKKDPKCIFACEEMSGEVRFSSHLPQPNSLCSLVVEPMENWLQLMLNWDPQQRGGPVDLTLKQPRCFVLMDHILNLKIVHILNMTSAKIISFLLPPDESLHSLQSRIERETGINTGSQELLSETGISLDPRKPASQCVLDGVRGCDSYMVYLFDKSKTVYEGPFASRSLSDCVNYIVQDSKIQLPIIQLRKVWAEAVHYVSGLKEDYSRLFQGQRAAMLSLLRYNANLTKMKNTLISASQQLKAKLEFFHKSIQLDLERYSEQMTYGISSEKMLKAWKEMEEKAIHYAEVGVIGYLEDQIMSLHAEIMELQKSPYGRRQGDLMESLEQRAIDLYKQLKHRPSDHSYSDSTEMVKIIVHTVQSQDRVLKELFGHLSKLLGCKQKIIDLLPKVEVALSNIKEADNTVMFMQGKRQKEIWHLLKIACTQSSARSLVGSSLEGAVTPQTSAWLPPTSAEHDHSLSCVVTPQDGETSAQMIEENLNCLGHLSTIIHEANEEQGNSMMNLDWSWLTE
Description: Enzymatic radiometric [Km ATP] KinaseProfiler LeadHunter assay, kinase: IKK-alpha, catalogue number: 14-461KP The assay has been performed by Eurofins Discovery. Conditions: ATP concentration 10.0 uM, Test compound concentration 10.0 uM.

Test [3] has as its target T3, Serine/threonine-protein kinase Chk1 (Homo sapiens) (UniProt O14757).
T3 sequence (whole entry): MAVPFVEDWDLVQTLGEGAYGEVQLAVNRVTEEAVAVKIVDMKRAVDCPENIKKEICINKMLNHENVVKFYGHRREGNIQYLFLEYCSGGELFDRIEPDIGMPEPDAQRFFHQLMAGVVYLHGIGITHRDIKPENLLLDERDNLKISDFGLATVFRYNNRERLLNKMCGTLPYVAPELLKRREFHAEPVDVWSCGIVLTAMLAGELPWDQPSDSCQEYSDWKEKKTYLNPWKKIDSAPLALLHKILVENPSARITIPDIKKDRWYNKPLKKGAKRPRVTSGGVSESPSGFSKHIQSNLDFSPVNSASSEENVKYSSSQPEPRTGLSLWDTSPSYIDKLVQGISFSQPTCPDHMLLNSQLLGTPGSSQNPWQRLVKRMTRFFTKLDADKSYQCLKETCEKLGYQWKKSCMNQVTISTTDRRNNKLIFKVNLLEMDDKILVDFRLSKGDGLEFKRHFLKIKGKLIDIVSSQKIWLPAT
Nature of the test: Enzymatic radiometric [Km ATP] KinaseProfiler LeadHunter assay, kinase: CHK1, catalogue number: 14-346KP The assay has been performed by Eurofins Discovery. The settings on record: ATP concentration 90.0 uM, Test compound concentration 10.0 uM.

Test [4] concerns the target T4, Serine/threonine-protein kinase 17A (Homo sapiens) (UniProt Q9UEE5).
T4 sequence (whole entry): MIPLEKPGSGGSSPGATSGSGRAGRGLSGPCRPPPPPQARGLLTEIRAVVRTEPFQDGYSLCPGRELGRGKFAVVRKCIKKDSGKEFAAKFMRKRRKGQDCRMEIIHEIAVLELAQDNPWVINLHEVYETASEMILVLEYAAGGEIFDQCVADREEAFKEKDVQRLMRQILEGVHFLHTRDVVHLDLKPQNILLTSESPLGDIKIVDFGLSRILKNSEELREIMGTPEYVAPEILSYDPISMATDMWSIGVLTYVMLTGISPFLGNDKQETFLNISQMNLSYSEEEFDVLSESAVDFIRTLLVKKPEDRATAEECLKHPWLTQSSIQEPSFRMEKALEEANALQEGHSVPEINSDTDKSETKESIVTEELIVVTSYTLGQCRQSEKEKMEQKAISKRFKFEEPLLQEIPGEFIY
Nature of the test: Enzymatic radiometric [Km ATP] KinaseProfiler LeadHunter assay, kinase: DRAK1, catalogue number: 14-668KP The assay has been performed by Eurofins Discovery. The settings on record: ATP concentration 10.0 uM, Test compound concentration 10.0 uM.

Test [5] addresses RAF proto-oncogene serine/threonine-protein kinase (Homo sapiens) (UniProt P04049). Nature of the test: Enzymatic radiometric [Km ATP] KinaseProfiler LeadHunter assay, kinase: c-RAF, catalogue number: 14-352KP The assay has been performed by Eurofins Discovery. Conditions: ATP concentration 120.0 uM, Test compound concentration 10.0 uM.
The target in test [6] is ALK tyrosine kinase receptor (Homo sapiens) (UniProt Q9UM73). Nature of the test: Enzymatic radiometric [Km ATP] KinaseProfiler LeadHunter assay, kinase: ALK, catalogue number: 14-555KP The assay has been performed by Eurofins Discovery. The settings on record: ATP concentration 200.0 uM, Test compound concentration 10.0 uM.
The target of test [7] is 5'-AMP-activated protein kinase catalytic subunit alpha-1 (Homo sapiens) (UniProt Q13131). Nature of the test: Enzymatic radiometric [Km ATP] KinaseProfiler LeadHunter assay, kinase: AMPK-alpha1, catalogue number: 14-840KP The assay has been performed by Eurofins Discovery. Conditions: ATP concentration 45.0 uM, Test compound concentration 10.0 uM.
The target in test [8] is Dual specificity mitogen-activated protein kinase kinase 1 (Homo sapiens) (UniProt Q02750). Nature of the test: Enzymatic radiometric [Km ATP] KinaseProfiler LeadHunter assay, kinase: MEK1, catalogue number: 14-429KP The assay has been performed by Eurofins Discovery. The settings on record: ATP concentration 10.0 uM, Test compound concentration 10.0 uM.
The target in test [9] is PI3-kinase p110-alpha/p85-alpha (Homo sapiens) (UniProt P27986+P42336). Nature of the test: Enzymatic radiometric [Km ATP] KinaseProfiler LeadHunter assay, kinase: PI3 Kinase (p110-alpha/p85-alpha), catalogue number: 14-602KP The assay has been performed by Eurofins Discovery. Type of test: protein-complex assay. The settings on record: ATP concentration 200.0 uM, Test compound concentration 10.0 uM.

Sequence of RAF proto-oncogene serine/threonine-protein kinase (Homo sapiens) (P04049 whole entry): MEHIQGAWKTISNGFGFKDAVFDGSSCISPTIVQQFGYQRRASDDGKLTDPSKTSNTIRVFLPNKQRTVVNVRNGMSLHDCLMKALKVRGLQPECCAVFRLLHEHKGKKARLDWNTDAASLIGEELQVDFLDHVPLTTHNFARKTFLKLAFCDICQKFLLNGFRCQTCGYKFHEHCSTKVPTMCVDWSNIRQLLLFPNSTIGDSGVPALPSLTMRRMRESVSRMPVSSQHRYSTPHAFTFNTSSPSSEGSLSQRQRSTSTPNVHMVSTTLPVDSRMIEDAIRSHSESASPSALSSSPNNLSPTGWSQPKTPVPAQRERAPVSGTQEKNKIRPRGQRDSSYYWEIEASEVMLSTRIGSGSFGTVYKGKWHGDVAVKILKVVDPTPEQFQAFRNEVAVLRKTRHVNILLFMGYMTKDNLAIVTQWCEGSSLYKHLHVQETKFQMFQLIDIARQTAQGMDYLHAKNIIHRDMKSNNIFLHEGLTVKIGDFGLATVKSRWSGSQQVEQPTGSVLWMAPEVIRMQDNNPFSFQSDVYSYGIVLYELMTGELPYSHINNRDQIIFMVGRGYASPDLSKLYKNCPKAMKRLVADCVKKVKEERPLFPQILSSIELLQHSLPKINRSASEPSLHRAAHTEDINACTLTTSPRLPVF
Sequence of Dual specificity mitogen-activated protein kinase kinase 1 (Homo sapiens) (Q02750 whole entry): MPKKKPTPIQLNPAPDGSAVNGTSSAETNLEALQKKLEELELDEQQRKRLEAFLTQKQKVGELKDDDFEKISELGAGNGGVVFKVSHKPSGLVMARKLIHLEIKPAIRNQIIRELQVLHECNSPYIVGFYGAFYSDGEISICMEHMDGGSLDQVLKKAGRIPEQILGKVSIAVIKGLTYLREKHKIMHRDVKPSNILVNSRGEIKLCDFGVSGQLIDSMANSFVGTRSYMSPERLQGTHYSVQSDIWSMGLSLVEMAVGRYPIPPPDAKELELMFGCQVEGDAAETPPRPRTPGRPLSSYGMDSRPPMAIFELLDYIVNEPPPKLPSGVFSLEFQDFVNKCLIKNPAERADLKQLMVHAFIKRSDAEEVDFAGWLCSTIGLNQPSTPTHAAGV
Sequence of ALK tyrosine kinase receptor (Homo sapiens) (Q9UM73 19-1620 limits assumed): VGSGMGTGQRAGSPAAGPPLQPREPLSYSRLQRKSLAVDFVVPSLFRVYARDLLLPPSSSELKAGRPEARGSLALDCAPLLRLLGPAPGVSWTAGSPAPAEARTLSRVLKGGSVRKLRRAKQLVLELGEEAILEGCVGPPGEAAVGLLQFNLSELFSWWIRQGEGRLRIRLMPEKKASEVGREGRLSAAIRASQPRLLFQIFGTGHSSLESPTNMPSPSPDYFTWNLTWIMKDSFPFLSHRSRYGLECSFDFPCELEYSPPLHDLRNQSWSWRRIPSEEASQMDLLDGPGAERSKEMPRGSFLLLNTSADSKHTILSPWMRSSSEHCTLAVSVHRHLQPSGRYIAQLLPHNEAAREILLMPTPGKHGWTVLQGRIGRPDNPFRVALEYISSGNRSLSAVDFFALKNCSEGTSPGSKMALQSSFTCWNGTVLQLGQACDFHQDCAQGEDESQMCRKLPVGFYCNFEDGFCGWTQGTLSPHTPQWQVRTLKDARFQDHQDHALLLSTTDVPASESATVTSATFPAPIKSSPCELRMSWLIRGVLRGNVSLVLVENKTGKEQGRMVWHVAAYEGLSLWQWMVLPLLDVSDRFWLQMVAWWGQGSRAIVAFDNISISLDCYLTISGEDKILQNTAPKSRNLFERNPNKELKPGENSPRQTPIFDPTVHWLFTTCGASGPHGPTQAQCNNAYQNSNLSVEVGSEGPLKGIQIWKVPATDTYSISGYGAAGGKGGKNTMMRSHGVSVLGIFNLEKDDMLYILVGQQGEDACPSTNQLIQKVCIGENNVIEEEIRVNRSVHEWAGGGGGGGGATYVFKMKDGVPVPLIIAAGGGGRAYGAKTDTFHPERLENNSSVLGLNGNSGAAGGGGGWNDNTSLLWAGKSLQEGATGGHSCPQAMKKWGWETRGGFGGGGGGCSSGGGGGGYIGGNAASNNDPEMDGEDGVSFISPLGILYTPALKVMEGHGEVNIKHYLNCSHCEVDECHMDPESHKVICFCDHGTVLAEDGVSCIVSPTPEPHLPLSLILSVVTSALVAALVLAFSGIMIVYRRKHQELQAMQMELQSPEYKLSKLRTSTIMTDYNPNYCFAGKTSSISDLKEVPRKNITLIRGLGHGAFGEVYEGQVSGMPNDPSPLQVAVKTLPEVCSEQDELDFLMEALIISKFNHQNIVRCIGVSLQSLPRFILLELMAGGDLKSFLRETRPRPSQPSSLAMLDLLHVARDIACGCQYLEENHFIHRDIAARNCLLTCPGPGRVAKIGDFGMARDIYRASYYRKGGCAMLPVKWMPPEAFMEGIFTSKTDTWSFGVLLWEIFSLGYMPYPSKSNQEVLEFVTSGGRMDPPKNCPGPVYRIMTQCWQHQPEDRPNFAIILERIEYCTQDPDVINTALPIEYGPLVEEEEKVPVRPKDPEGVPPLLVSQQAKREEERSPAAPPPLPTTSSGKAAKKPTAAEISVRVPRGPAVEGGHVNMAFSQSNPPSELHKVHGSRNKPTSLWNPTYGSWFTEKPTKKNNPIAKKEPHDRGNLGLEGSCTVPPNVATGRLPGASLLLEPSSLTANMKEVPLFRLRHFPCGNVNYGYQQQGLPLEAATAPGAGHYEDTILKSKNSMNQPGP
Sequence of 5'-AMP-activated protein kinase catalytic subunit alpha-1 (Homo sapiens) (Q13131 whole entry, looked up): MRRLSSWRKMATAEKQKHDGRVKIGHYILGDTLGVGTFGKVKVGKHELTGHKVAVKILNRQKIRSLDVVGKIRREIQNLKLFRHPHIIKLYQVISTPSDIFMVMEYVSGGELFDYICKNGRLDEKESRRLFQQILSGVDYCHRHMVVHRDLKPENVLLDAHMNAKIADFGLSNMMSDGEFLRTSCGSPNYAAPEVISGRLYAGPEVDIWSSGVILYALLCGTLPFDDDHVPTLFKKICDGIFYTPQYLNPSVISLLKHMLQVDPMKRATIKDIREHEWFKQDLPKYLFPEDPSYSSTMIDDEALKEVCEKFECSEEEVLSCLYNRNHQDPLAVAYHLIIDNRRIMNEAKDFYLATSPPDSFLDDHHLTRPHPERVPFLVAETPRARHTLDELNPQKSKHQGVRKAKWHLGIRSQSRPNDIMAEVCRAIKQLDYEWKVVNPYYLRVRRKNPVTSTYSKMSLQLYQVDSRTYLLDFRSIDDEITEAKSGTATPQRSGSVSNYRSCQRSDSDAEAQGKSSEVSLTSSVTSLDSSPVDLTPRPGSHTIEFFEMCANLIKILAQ

With `CC(C)[C@H](Nc1ncnc2[nH]c(-c3cnn(C)c3C#N)cc12)c1ccc2c(n1)OCCO2`, the Activity was determined as 53% in test [1]; 120% in [2]; 119% in [3]; 105% in [4]; 97% in [5]; 116% in [6]. Further, the Activity turned out to be 111% in [7], 97% in test [8] and 70% in test [9].

Take `CC(C)[C@H](Nc1ncnc2[nH]ccc12)c1ccc2c(c1)S(=O)(=O)CCC2`: the Activity turned out to be 51% in test [1]; 92% in [2]; 110% in test [3]; 117% in test [4]; 107% in [5]; 100% in test [6]. Also, the Activity stood at 104% in test [7], 94% in test [8] and 94% in test [9].

With `COc1ccc([C@H](Cc2nnn[nH]2)NC(=O)c2ncnc3[nH]ccc23)cc1`, the Activity in test [1] worked out at 84%; in [2] it was 98%; in [3], 110%; in test [4], 111%; in test [5], 103%; in test [6], 106%. The Activity amounted to 97% in test [7], 100% in test [8] and 99% in [9].

As for `Cn1ncc(-c2cc3c(N[C@@H](c4ccc5c(n4)OCCO5)C(C)(C)C)ncnc3[nH]2)c1C#N`, the Activity was 95% in test [1]; 125% in test [2]; 125% in test [3]; 108% in test [4]; 87% in test [5]; 117% in test [6]. Besides, the results for the Activity in [7], in [8] and in test [9] were 109%, 98% and 75%, respectively.

Regarding `CC(C)[C@@H](Nc1ncnc2[nH]c(C(=O)N[C@@H]3CCN(C)C3)cc12)c1ccc2c(c1)S(=O)(=O)CCC2`, the Activity worked out at 97% in test [1]; 82% in test [2]; 118% in test [3]; 105% in [4]; 105% in test [5]; 106% in [6]. In addition, the Activity was 107% in test [7], 107% in test [8] and 104% in test [9].

As to `CNC(=O)Cn1cc(-c2cc3c(N[C@@H](c4ccc5c(c4)S(=O)(=O)CCC5)C(C)C)ncnc3[nH]2)cn1`, the Activity in test [1] was found to be 77%; in test [2], 84%; in test [3], 107%; in test [4], 111%; in test [5], 102%; in [6] it was 95%. Moreover, the Activity in [7] is 104%; in [8] it was 97%; in [9], 102%.

Take `Cc1nn(C)cc1-c1cc2c(N[C@H](c3ccc4c(c3)S(=O)(=O)CCC4)C(C)C)ncnc2[nH]1`: the Activity in test [1] was found to be 55%; in test [2] it was 94%; in test [3], 102%; in test [4], 111%; in [5], 93%; in test [6], 99%. In addition, the results for the Activity in test [7], in test [8] and in [9] were 102%, 99% and 102%, respectively.

Regarding `COc1ccc([C@@H](Cc2nnn[nH]2)NC(=O)c2ncnc3[nH]ccc23)cc1`, the Activity turned out to be 71% in [1]; 99% in test [2]; 95% in test [3]; 111% in [4]; 90% in test [5]; 95% in [6]. Further, the Activity in test [7] stood at 101%; in [8], 92%; in test [9], 101%.

For the compound `CNCc1cc(-c2cc3c(N[C@@H](c4ccc5c(c4)S(=O)(=O)CCC5)C(C)C)ncnc3[nH]2)co1`, the Activity in test [1] came to 73%; in [2], 79%; in test [3], 111%; in test [4], 86%; in test [5] it was 100%; in test [6], 99%. Further, the Activity was determined as 86% in [7], 97% in [8] and 99% in [9].

As for `CC(C)[C@@H](Nc1ncnc2[nH]ccc12)c1ccc2c(c1)S(=O)(=O)CCC2`, the Activity was 57% in test [1]; 91% in [2]; 84% in [3]; 96% in test [4]; 97% in test [5]; 93% in test [6]. Also, the values for the Activity in test [7], in test [8] and in test [9] were 94%, 97% and 104%, respectively.

As for `C[C@H](C(=O)O)[C@@H](NC(=O)c1ncnc2[nH]ccc12)c1ccc(Br)cc1`, the Activity came out at 72% in test [1]; 99% in [2]; 99% in [3]; 98% in test [4]; 108% in [5]; 99% in test [6]. The Activity in test [7] is 93%; in [8] it was 89%; in test [9], 100%.

As for `CC(C)[C@@H](Nc1ncnc2[nH]c(-c3cnn(C)c3C#N)cc12)c1ccc2c(n1)OCCO2`, the Activity in test [1] is 44% and 58%; in test [2] it was 111% and 104%; in [3] it was 108% and 120%; in test [4], 101% and 108%; in [5], 81% and 90%; in test [6], 103% and 106%. The Activity in test [7] was 116% and 99%; in [8] it was 99% and 103%; in [9] it was 49% and 55%.
